We go through 13 molecules from ChEMBL document CHEMBL1130899, “Development of dual-acting agents for thromboxane receptor antagonism and thromboxane synthase inhibition. 2. Design, synthesis, and evaluation of a novel series of phenyl oxazole derivatives” (Bioorg Med Chem Lett, 1998).

Molecules are shown by their SMILES.

A short description of data set [1]: Partition coefficient (logP). In kind it is physicochemical. The note with it: octanol/water.
Data set [2] has as its target T1, Thromboxane A2 receptor (Homo sapiens, UniProt P21731).
T1 sequence (P21731 whole entry): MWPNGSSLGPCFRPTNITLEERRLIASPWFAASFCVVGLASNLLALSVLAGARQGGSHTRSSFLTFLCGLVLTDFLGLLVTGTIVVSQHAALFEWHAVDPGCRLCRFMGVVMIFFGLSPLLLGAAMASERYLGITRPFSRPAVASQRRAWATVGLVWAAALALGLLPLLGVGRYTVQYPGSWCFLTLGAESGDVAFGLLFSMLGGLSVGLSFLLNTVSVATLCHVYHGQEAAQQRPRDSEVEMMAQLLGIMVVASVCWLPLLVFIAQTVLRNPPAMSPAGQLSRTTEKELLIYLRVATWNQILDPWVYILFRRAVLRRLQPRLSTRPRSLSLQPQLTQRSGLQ
The data set can be described thus: In vitro thromboxane receptor antagonism was determined using a human platelet binding assay.

The target in data set [3] is T2, Thromboxane-A synthase (Homo sapiens, UniProt P24557).
T2 sequence (P24557 whole entry): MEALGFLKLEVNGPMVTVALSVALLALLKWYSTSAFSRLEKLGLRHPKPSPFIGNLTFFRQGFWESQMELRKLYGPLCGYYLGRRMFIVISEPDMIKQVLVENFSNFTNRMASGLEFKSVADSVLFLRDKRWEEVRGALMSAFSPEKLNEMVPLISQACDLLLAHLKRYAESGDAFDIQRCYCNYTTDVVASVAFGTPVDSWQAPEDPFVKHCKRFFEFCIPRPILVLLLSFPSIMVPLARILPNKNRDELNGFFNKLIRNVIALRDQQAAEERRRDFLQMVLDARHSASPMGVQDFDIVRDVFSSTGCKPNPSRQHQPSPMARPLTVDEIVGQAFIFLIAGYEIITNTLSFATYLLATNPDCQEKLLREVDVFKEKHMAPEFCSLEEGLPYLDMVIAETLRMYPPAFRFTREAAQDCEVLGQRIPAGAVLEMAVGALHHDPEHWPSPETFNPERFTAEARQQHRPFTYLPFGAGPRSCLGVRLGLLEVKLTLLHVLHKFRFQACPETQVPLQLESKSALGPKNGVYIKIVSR
The data set can be described thus: In vitro inhibition of thromboxane synthase (TSI) activity was determined by using human serum levels of TXB2. Format: cell-free.

A word on the logP: it is the decadic logarithm of the partition coefficient of the neutral form, usually between octanol and water. A high value points to higher lipophilicity. By Kd is commonly meant a measure of binding affinity in units of concentration. High values mean lower affinity, low ones higher affinity. What is called IC50 is the concentration needed to halve the response being measured. Higher therefore signals weaker potency in that assay. `CCCCCNC(=O)c1coc(-c2ccc(/C(=C\CCCCC(=O)O)c3cccnc3)cc2)n1`: the log partition coefficient (logP) in data set [1] is 5.23. This molecule returned an equilibrium dissociation constant (Kd) in data set [2] of 153 nM. Further, the IC50 in data set [3] is 31.2 nM.

In data set [2], `O=C(O)CCCC/C=C(\c1cccnc1)c1ccccc1-c1nc(C(=O)NCCCCC2CCCCC2)co1` displayed a dissociation constant (Kd) of 1500 nM.

`O=C(O)CCCC/C=C(/c1cccnc1)c1cccc(-c2nc(C(=O)NCCCCC3CCCCC3)co2)c1` displayed a dissociation constant (Kd) in data set [2] of 12.3 nM. Also, 19 nM corresponded to half-maximal inhibition in data set [3] (IC50).

In data set [2], `O=C(O)CCCC/C=C(/c1cccnc1)c1ccccc1-c1nc(C(=O)NCCCCC2CCCCC2)co1` had a Kd of 540 nM.

`O=C(O)CCCC/C=C(\c1cccnc1)c1cccc(C2=N[C@@H](C(=O)NCCCCC3CCCCC3)CO2)c1` had a dissociation constant (Kd) in data set [2] of 830 nM.

As to `O=C(O)CCCC/C=C(\c1ccc(-c2nc(C(=O)NCCCCC3CCCCC3)co2)cc1)c1cccnc1`, the logP in data set [1] was 7.35. This molecule gave a concentration for half-maximal inhibition (IC50) in data set [3] of 550 nM.

As to `CCCCCNC(=O)[C@@H]1COC(c2ccc(/C(=C\CCCCC(=O)O)c3cccnc3)cc2)=N1`, the Kd in data set [2] came to 244 nM.

Consider `O=C(O)CC/C=C(\c1ccc(-c2nc(C(=O)NCCCCC3CCCCC3)co2)cc1)c1cccnc1`, for which, in data set [2], the Kd was 93.3 nM. Further, in data set [3], the IC50 came to 3170 nM.

In data set [3], `O=C(O)CCCC/C=C(\c1ccc(C2=N[C@@H](C(=O)NCCCCC3CCCCC3)CO2)cc1)c1cccnc1` displayed an IC50 of 82.1 nM.

For the molecule `O=C(O)CCCC/C=C(\c1cccnc1)c1cccc(-c2nc(C(=O)NCCCCC3CCCCC3)co2)c1`, the Kd in data set [2] was 630 nM. Besides, the IC50 in data set [3] was 23 nM.

For the molecule `O=C(O)CCCC/C=C(/c1ccc(C2=N[C@@H](C(=O)NCCCCC3CCCCC3)CO2)cc1)c1cccnc1`, the IC50 in data set [3] is greater than 10000 nM.

In turn, `O=C(O)CCCC/C=C(/c1ccc(-c2nc(C(=O)NCCCCC3CCCCC3)co2)cc1)c1cccnc1` displayed a Kd in data set [2] of 147 nM.

For `O=C(O)CCCC/C=C(\c1ccccc1)c1cccnc1` [(E)-ISBOGREL], the Kd in data set [2] stood at 8200 nM.
